Legend:
[1] = system: HER2^+ metastases and DCCs; assay: Sequential Abemaciclib then LY4 treatment of MMTV-HER2 mice; assay type: in vivo, mouse; conditions: Abemaciclib 50 mpk 4 weeks; LY4 50 mpk
Protocol: (§1) Mice, tumor growth, and tissue processing: The FVB/N-Tg (MMTVneu) mouse strain was obtained from Jackson Laboratories (Sacramento, Calif.). […] Before being used in any experiment, females underwent one round of pregnancy and at least two weeks of no lactation after weaning. Females between 24-32 weeks of age were injected intraperitoneally with vehicle (90% corn oil, 10% ethanol) or LY4 (50 mpk) daily, for two weeks. For the combination treatment, females 24-32 weeks of age were treated daily by oral gavage with Abemaciclib (50 mpk) for 4 weeks before starting the treatment described earlier with LY4. Tumor volumes were measured using the formula (Dxd^2)/2, where D is the longest and d is the shortest diameter. For CTC count, animals were anesthetized and whole blood was extracted by cardiac puncture. Mammary glands, lungs, and tumors were collected and fixed in 10% buffered formalin overnight before paraffin embedding. The bone marrow from the two lower limbs was flushed with a 26 G needle and further processed by Ficoll density gradient centrifugation. For CTC as well as for DTC detection in bone marrow, tissues were depleted of mature hematopoietic cells by anti-mouse antibody-labeled magnetic bead separation (Miltenyi Biotec, San Diego, Calif.) before fixation in formalin for 20 minutes at 4° C.

[2] = Tolerability in MMTV-HER2 female mice; assay type: in vivo, mouse
Protocol: as §1

[3] = system: ZR75.1 HER2^+ cells; assay: 3D Matrigel culture of ZR75.1-H2B-Dendra2 cells at low or high density, live cells; assay type: cell-based, human; conditions: 2 μM, day 2 to day 8, 3D Matrigel
Protocol: (§2) Reagents, cell culture, and treatments: EGF was obtained from PeproTech (Rocky Hill, N.J.) and used at 100 ng/ml. Thapsigargin was from Sigma (St. Louis, Mo.) and used at 2 nM. The ZR75.1-H2B-Dendra2 cell line was generated by stable transfection of the H2B-Dendra2 plasmid (Gurskaya et al., “Engineering of a Monomeric Green-to-Red Photoactivatable Fluorescent Protein Induced by Blue Light,” Nat. Biotechnol. 24:461-465 (2006), which is hereby incorporated by reference in its entirety). For 3D cultures, MCF10A-HER2, SKBR3, and ZR75.1-H2B-Dendra2 cells were plated in growth factor-reduced Matrigel (Corning, Corning, N.Y.) and grown as described previously (Avivar-Valderas et al., “Regulation of Autophagy during ECM Detachment is Linked to a Selective Inhibition of mTORC1 by PERK,” Oncogene 32(41):4932-40 (2013), which is hereby incorporated by reference in its entirety). When referring to “low density,” 3,500 cells/8-well were seeded, and for “high density” 20,000 cells/8-well. Treatments with vehicle (DMSO) or LY4 (2 μM) were replaced every 24 hours for 2D and every 48 hours for 3D cultures.

[4] = system: MMTV-HER2 mammary glands; assay: Mammary gland whole mount and histology of early lesions in MMTV-HER2 mice; assay type: in vivo, mouse; conditions: 50 mpk, two weeks
Protocol: as §1
Mammary gland whole mount staining. Mammary glands fixed in 10% buffered formalin were incubated in Carmine Alum stain (Carmine 0.2%, Aluminum potassium sulfate 0.5%) (Sigma, St. Louis, Mo.) for 2 days. Then, they were dehydrated and transferred to methyl salicylate solution before imaging using a stereomicroscope.
The scoring for P-HER2 levels is explained in FIG. 10A. For the scoring of CK8/18 and SMA in mammary gland ducts, 20 low magnification fields were evaluated per animal for the expression of CK8/18 as negative (0), low (1), or high (2) and the same for SMA and the sum of the two scores was considered as the final score (from 0 to 4).

[5] = system: HER2^+ tumors; assay: Growth of overt tumors in MMTV-HER2 females; assay type: in vivo, mouse
Protocol: as §1
IHC and IF: IHC and IF from paraffin-embedded sections was performed as previously described (Avivar-Valderas et al., “Regulation of Autophagy during ECM Detachment is Linked to a Selective Inhibition of mTORC1 by PERK,” Oncogene 32(41):4932-40 (2013), which is hereby incorporated by reference in its entirety). Briefly, slides were dewaxed and serially rehydrated. Heat-induced antigen retrieval was performed in either citrate buffer (10 mM, pH 6), EDTA buffer (1 mM, pH 8), or Tris/EDTA (pH9). Slides were further permeabilized in 0.1% Triton™-X100, blocked and incubated with primary antibody overnight at 4° C. at 1:50-1:200 dilution. For IHC, an additional step of endogenous peroxidase and avidin/biotin quenching was performed before primary antibody incubation. […] Next, slides were incubated in secondary antibodies (Life Technologies, Norwalk, Conn.) and mounted. For IHC, sections were processed using VectaStain ABC Elite kit (Vector Laboratories, Bulingame, Calif.) and DAB Substrate kit for peroxidase labelling (Vector Laboratories) and mounted in VectaMount medium (Vector laboratories). For IF, sections were mounted in ProLong Gold Antifade aqueous medium (Thermo Fisher, Waltham, Mass.).
TUNEL in situ cell death detection: Apoptosis levels were evaluated using the In situ Cell Death Detection kit, AP (Roche, Basel, Switzerland). Paraffin sections from tumors were dewaxed, rehydrated, and permeabilized in phosphate buffered saline (PBS) 0.2% TRITON™-X100 for 8 minutes. Then, slides were washed and blocked in 20% normal goat serum for 1 hour at 37° C. The TUNEL reaction mixture was then added and let go for 1 hour at 37° C. The reaction was stopped by incubating with Buffer I(0.3 M Sodium chloride, 30 mM Sodium citrate). Next, the slides were incubated with anti-fluorescein-AP antibody for 30 minutes at 37° C. After three washes in Tris buffered saline (TBS), slides were incubated in alkaline phosphatase substrate in 0.1% TWEEN™-20 for 20 min at room temperature. Finally, the slides were mounted using aqueous mounting medium. The percentage of TUNEL positive cells was calculated using Image J software (NIH).

[6] = system: MCF10A-HER2 cells; assay: Cell viability dose-response (Cell Titer Blue) with or without thapsigargin; assay type: cell-based; conditions: Homo sapiens, 48 hours, absence or presence of thapsigargin 2 nM, dashed line of FIG. 2D
Protocol: as §2

With `Cc1cc(NC(=O)[C@H](O)c2cc(F)cc(F)c2)ccc1-c1cnc(N)c(C(=O)NC(C)C)c1` [LY4, 2-amino-5-[4-[[(2R)-2-(3,5-difluorophenyl)-2-hydroxy-acetyl]amino]-2-methyl-phenyl]-N-isopropyl-pyridine-3-carboxamide] the “GADD34 in primary tumor sections” value [1] was “eliminated the expression of GADD34”, the “bone marrow cell homeostasis and peripheral blood white cells (total cell counts)” value ([2]; 50 mpk i.p. daily, two weeks) was “no effect on total cell counts” and the “tolerability, body weight” value ([2]; 50 mpk i.p. daily, two weeks) was “well tolerated, with no significant changes in body weight”. For the same compound, the “glucose levels, blood cell counts, drinking and feeding behavior” value ([2]; doses of LY4 used, non-tumor or cancer bearing mice) was “did not significantly affect glucose levels, bone marrow, or peripheral blood cell counts, drinking and feeding behavior”, the “survival of quiescent single cells (low density)” value [3] was “eradicated the quiescent single ZR75.1 HER2^+ cells” and the “viability of cells seeded at high density” value [3] was “no significant effect on the viability”. The “cytokeratin 8/18 expression in the luminal layer of mammary ducts” value [4] was “increased expression of cytokeratin 8/18 in the luminal layer”, the “number of occluded hyperplasias and DCIS-like lesions” value [4] was “reduced to less than half of that in vehicle-treated animals” and the “hollow lumen mammary gland ducts, share of structures” value ([4]; around 20% in control females) was “more than 60%”. The “tumors remaining in complete cytostasis” value ([5]; 2-week treatment, 7% in controls) was 43%, the tumors showing regression ([5]; 2-week window treatment) was 25% and the “P-HER2 levels in tumors (IHC score)” value ([5]; 50 mpk, two weeks) was “significantly lower levels of P-HER2 than control animals”. The “TUNEL staining of tumor sections (DNA fragmentation)” value ([5]; 50 mpk, two weeks) was “significant increase in the levels of DNA fragmentation”, the “median final tumor volume” value ([5]; 50 mpk, two weeks) was “significant decrease in median final tumor volume” and the “proliferation in tumors (P-histone H3 IHC)” value ([5]; 50 mpk, two weeks) was “not different between vehicle- and LY4-treated tumors”. The tumor growth rate ([5]; 50 mpk, two weeks) was “reduced growth rate” and the IC50 [6] was about 9 nM.
